Molecules are shown by their SMILES. Values after ≈ are worked out from the molar mass of the structure shown. Where two headings read alike, the source gives them in different places.

12 compounds from EP3958860B1, “COMPOUNDS EXHIBITING ANTI-TUBERCULOSIS ACTIVITY” (priority 2019, dated 2021) can be followed below.

The subject of one series is Mycobacterium avium. As to the kind of experiment: MIC on Mycobacterium avium with BACTEC. It counts as cell-based. Particulars: for MIC: Mycobacterium avium, BACTEC.
For series [1], the system named is Mycobacterium tuberculosis H37Rv. In words: MIC determination by MABA (Microplate Alamar Blue Assay). It counts as cell-based. Conditions: for MIC: Mycobacterium tuberculosis, H37RV. The method, then:
Following this, to determine the actual minimum inhibitory concentration in the second phase, both of the compounds were retested to the lowest concentration of Mycobacterium tuberculosis H37Rv with the technique of MABA (Microplate Alamar Blue Assay) and MIC value for the 1st compound was determined <0.03 µg/ml while this value was determined <0.05 µg/ml for the second compound. The result of Rifampicin subjected to the assay under the same conditions was determined as 0.25 µg/ml.

Series [2] deals with Mycobacterium tuberculosis H37Rv (ATCC27294). It counts as cell-based.
The format of series [3] is physicochemical. The protocol: To ensure that Compound 2 is dissolved in water, in the assays carried out with solubility enhancing cyclodextrin molecules, different cyclodextrins [hydroxypropyl beta-cyclodextrin (HP-β-CD), sulfobutyl ether beta-cyclodextrin (SBE-β-CD)], different methods [kneading, evaporation, lyophilization], different solvents (dimethyl sulfoxide, methanol, ethanol) were studied at the molar ratio of 1: 1 compound: cyclodextrin.

Series [4] is classed as physicochemical. The protocol: In the assays carried out with the solubility enhancing Polysorbate 80 (Tween 80) in order to ensure water solubility of Compound 2, firstly solubility of the compound was determined in an aqueous solution prepared with a mass ratio of 1:6 (compound: Tween 80) and then the same mass ratio was studied with different solvents (ethanol, methanol) and different drying methods (evaporation, evaporation+lyophilization). In light of the results of solubility obtained and presented below Table 2, it has determined that the solution of the compound that was prepared with the Tween 80 in methanol medium had the highest solubility rate after evaporation.
Details of the method where high solubility was determined with Polysorbate 80 (Tween 80) are presented below: After the substances at the mass ratio of 1:6 (compound: Tween 80) were dissolved in 7 ml methanol, they were evaporated in a rotating evaporator at 175 RPM, at a temperature of 40°C and a vacuum of […]. The thin film obtained was firstly blended with vortex adding 3 ml water, and then was left to rest for 15 minutes in an ultrasonic bath. The mixture obtained was filtered out with a plastic filter having a pore diameter of 0.2 µm and afterward solubility ratio of the mixture was determined with HPLC.
This is another data set of the same source.

The nature of series [5]: In vivo animal toxicity tests (maximum tolerable dose).
Where [6] appears, read: first value of the cell (outside parentheses), MABA, read-out: MIC H37Rv.
Setting [7] is: value printed in parentheses after the bound <12.5, read-out: MIC H37Rv (µg/ml), value in parentheses.
The mark [8] stands for this setting: read-out: MIC H37Rv (µg/ml), value in parentheses.
[9] abbreviates: first value of the cell (outside parentheses), MABA.

`CC(=NNc1nc(-c2ccccc2O)cs1)c1ccc2c(c1)CCC2` [Compound 4, 2-[2-(2-(1-(2,3-Dihydro-1H-inden-5-yl)ethylidene)hydrazinyl)thiazol-4-yl]phenol]: the MIC in the series with Mycobacterium avium was 0.78 µg/mL (≈ 2.23 µM); in series [1] (setting [6]) it was under 12.5 µg/mL; in series [1] (setting [7]), 0.2 µg/mL (≈ 0.572 µM).
Turning to `C/C(=N\Nc1nc(-c2ccc(C)cc2)cs1)c1ccc2c(c1)CCC2` [Compound 7], the results for the MIC (in the series with Mycobacterium avium; in series [1] (read-out: MIC H37Rv (µg/ml)); in series [1] (setting [8])) were 0.2 µg/mL (≈ 0.576 µM), under 12.5 µg/mL and 0.2 µg/mL (≈ 0.576 µM), respectively. Moreover, the “Primary screening % inhibition” value in series [2] was determined as 94%.
As for `CC(=NNc1nc(-c2ccc(C)cc2O)cs1)c1ccc2c(c1)CCC2` [Compound 9, 2-[2-(2-(1-(2,3-Dihydro-1H-inden-5-yl)ethylidene)hydrazinyl)thiazol-4-yl]-5-methylphenol], the MIC is 0.1 µg/mL (≈ 0.275 µM) in the series on Mycobacterium avium, under 12.5 µg/mL in series [1] (setting [6]) and 0.05 µg/mL (≈ 0.138 µM) in series [1] (setting [7]).
As for `CC(=NNc1nc(-c2cc(Cl)ccc2O)cs1)c1ccc2c(c1)CCC2` [Compound 5, 4-Chloro-2-[2-(2-(1-(2,3-dihydro-1H-inden-5-yl)ethylidene)hydrazinyl)thiazol-4-yl]phenol], in series [1] (setting [6]), the MIC was under 12.5 µg/mL.
For the compound `COc1ccc(O)c(-c2csc(NN=C(C)c3ccc4c(c3)CCC4)n2)c1` [Compound 2, 2-[2-(2-(1-(2,3-dihydro-1H-inden-5-yl)ethylidene)hydrazinyl)thiazole-4-yl]-4-methoxy phenol], in series [3], the increase in solubility result was “any significant increase in solubility was not observed”. The “dissolved in water at the ratio of” value in series [3] (HP-β-CD, molar ratio 1:1, evaporation method within ethanol) is 0.59 µg/mL. Besides, in the series on Mycobacterium avium, the “activity on Mycobacterium avium” value was “exhibited activity” and the MIC turned out to be 0.39 µg/mL (≈ 1.03 µM). The MIC in series [1] (setting [6]) was under 0.05 µg/mL. Also, the “MIC H37Rv” value in series [1] (setting [9]) was under 0.05 µg/mL. Also, in series [4], the “Solubility ratio in the aqueous solution” value is listed as “Solubility ratio in the aqueous solution prepared with the mass ratio of 1:6 (compound: Tween 80) 42,44 µg/ml” and the “The ratio of water solubility” value is reported as 58,80 µg/ml. Further, the “The ratio of water solubility” value in series [4] (15 min) was 70,05 µg/ml.
Take `CC(=NNc1nc(-c2ccccc2)cs1)c1ccc2c(c1)CCC2` [Compound 11, 2-[2-(1-(2,3-Dihydro-1H-inden-5-yl)ethylidene)hydrazinyl]-4-phenylthiazole]: the MIC is 12.5 µg/mL (≈ 37.5 µM) against Mycobacterium avium, under 12.5 µg/mL in series [1] (read-out: MIC H37Rv (µg/ml)) and 3.13 µg/mL (≈ 9.39 µM) in series [1] (setting [8]).
Consider `CC(=NNc1nc(-c2ccc(Cl)cc2)cs1)c1ccc2c(c1)CCC2` [Compound 3, 4-(4-Chlorophenyl)-2-[2-(1-(2,3-dihydro-1H-inden-5yl)ethylidene)hydrazinyl] thiazole], for which the MIC with Mycobacterium avium was 0.78 µg/mL (≈ 2.12 µM); in series [1] (setting [6]), under 12.5 µg/mL; in series [1] (setting [7]) it was 0.39 µg/mL (≈ 1.06 µM).
Turning to `CO[C@H]1/C=C/O[C@@]2(C)Oc3c(C)c(O)c4c(O)c(c(/C=N/N5CCN(C)CC5)c(O)c4c3C2=O)NC(=O)/C(C)=C\C=C\[C@H](C)[C@H](O)[C@@H](C)[C@@H](O)[C@@H](C)[C@H](OC(C)=O)[C@@H]1C` [Rifampicin, reference compound], in series [1] (setting [6]), the MIC was determined as 0.25 µg/mL (≈ 0.304 µM).
In the case of `C/C(=N\Nc1nc(-c2ccc([N+](=O)[O-])cc2)cs1)c1ccc2c(c1)CCC2` [Compound 10], the MIC against Mycobacterium avium is 3.13 µg/mL (≈ 8.27 µM); in series [1] (read-out: MIC H37Rv (µg/ml)), under 12.5 µg/mL; in series [1] (setting [8]), 1.56 µg/mL (≈ 4.12 µM). Also, the “Primary screening % inhibition” value in series [2] was 93%.
In turn, `CC(=NNC(N)=S)c1ccc2c(c1)CCC2` [Compound 1, 2-[1-(2,3-dihydro-1H-inden-5-yl)ethylidene]hydrazinecarbothioamide] showed a maximum tolerable dose in series [5] of 1000 mg/kg. The MIC in series [1] (setting [6]) was under 0.03 µg/mL. For the same compound, the “MIC H37Rv” value in series [1] (setting [9]) was under 0.03 µg/mL.
With `CC(=NNc1nc(-c2ccc(Br)cc2)cs1)c1ccc2c(c1)CCC2` [Compound 6, 4-(4-Bromophenyl)-2-[2-(1-(2,3-dihydro-1H-inden-5-yl)ethylidene)hydrazinyl] thiazole], the results for the MIC (in the series on Mycobacterium avium; in series [1] (setting [6]); in series [1] (setting [7])) were 1.56 µg/mL (≈ 3.78 µM), under 12.5 µg/mL and 0.39 µg/mL (≈ 0.946 µM), respectively.
For the compound `COc1ccc(-c2csc(NN=C(C)c3ccc4c(c3)CCC4)n2)c(O)c1` [Compound 8, 2-[2-(2-(1-(2,3-Dihydro-1H-inden-5-yl)ethylidene)hydrazinyl)thiazol-4-yl]-5-methoxyphenol], the MIC in series [1] (setting [6]) was under 12.5 µg/mL.
